Reference: patent publication US11806343B2, “Inhibitors of DUX4 induction for regulation of muscle function” (Sonic Master Limited, priority 2017, dated 2023)
Several values for one entry are separate records, joined by “and”; a condition that tells them apart may be missing. Identical values can stand only once.

How the values were obtained:
[1] = test system: DUX4; experiment: DUX4 expression downregulation by kinase family inhibitors (Table 1); assay type: cell-based; conditions: for EC50: DUX4 reduction; for Quantitation % of DUX4 reduction @the lowest significant [C]: at the lowest significant concentration; for lowest significant [C]: concentration in brackets at which the % DUX4 reduction is given
[2] = test system: Genea049 FSHD hESC-SkM; experiment: FSHD hESC-SkM immunocytochemistry, Myosin Heavy Chain and nuclei (myogenic inhibition/toxicity); assay type: cell-based, human
Procedure: (§1) FIG. 6 provides an example of a screening and culturing workflow for hESC-SkM assays. At Day 0, hESC-derived myoblasts are thawed into a 96-well plate in myoblast medium (Genea BioCells). On Day 2, the medium is replaced with new myoblast medium containing 1.15 μM. Decitabine. […] On Day 7, the myotubes are analyzed. For example, the myotubes may be analyzed for MHC expression or DUX4 expression.
(§2) Genea049 FSHD-affected human Embryonic Stem Cells (hESCs) were differentiated using Genea's myogenic differentiation protocol (Caron et 2015) to the myoblast stage and cryopreserved. Frozen myoblasts were resuscitated and 4500 cells were plated into each well of a 96-well collagen I coated tissue culture plate in myoblast medium. After two days of cell growth medium was changed to 100 μL per well myoblast medium containing 1.15 μM Decitabine. […] Cells were allowed to differentiate to myotubes for four additional days then were fixed and analyzed for quantification of DUX4 expression, Myosin Heavy Chain expression, and nuclei number. Triplicate wells of each condition were averaged.
as §2, with “et al.,” for “et”, “number by high-content imaging.” for “number.”

[3] = test system: DUX4; experiment: FSHD hESC-SkM immunocytochemistry, DUX4 expression; assay type: cell-based, human; conditions: Genea049 hESC-SkM
Procedure: as §1, §2
as §2, with “et al.,” for “et”, “number by high-content imaging.” for “number.”

| EC50 [1] | SMILES | Quantitation % of DUX4 reduction @the lowest significant [C] [1] | lowest significant [C] [1] [µM] | Myosin Heavy Chain expression and nuclei count, dose curve ([2]; 10 nM-3 μM, four days) | Myosin Heavy Chain expression and nuclei count ([2]; 100 nM, four days of culture) | DUX4 expression ([3]; 100 nM, four days of culture during myotube formation) | DUX4 expression, dose curve ([3]; six concentration points 10 nM-3 μM, four days) |
| --- | --- | --- | --- | --- | --- | --- | --- |
| 132 nM | Cc1ccc(NC(=O)c2ccc(CN3CC[C@H](N(C)C)C3)c(C(F)(F)F)c2)cc1Nc1nccc(-c2cncnc2)n1 [Bafetinib] | 67.90% | 2.08 |  |  |  |  |
|  | COc1cc(Nc2c(C#N)cnc3cc(OCCCN4CCN(C)CC4)c(OC)cc23)c(Cl)cc1Cl [Bosutinib] | 70.58% | 3 |  |  |  |  |
| 82 nM | Cc1ncc(NC(=O)c2ccc(CN3CCN(C)CC3)c(C(F)(F)F)c2)cc1Nc1nccc(-c2cccnc2)n1 [Flumatinib] | 76.09% | 2.08 |  |  |  |  |
|  | NS(=O)(=O)OC[C@@H]1C[C@@H](n2ccc3c(N[C@H]4CCc5ccccc54)ncnc32)C[C@@H]1O [GBC0772, MLN4924] |  |  | decreased Myosin Heavy Chain expression and nuclei count | decreased Myosin Heavy Chain expression and nuclei count | decreased DUX4 expression | dose-dependent decreased DUX4 expression |
|  | Cc1ccc(NC(=O)c2ccc(CN3CCN(C)CC3)cc2)cc1Nc1nccc(-c2cccnc2)n1 [Imatinib] | 61.13% |  |  |  |  |  |
| 175 nM | Cc1ccc(NC(=O)c2ccc(CN3CC[C@H](N(C)C)C3)c(C(F)(F)F)c2)cc1Nc1ncc(-c2cncnc2)cn1 [Lyn-IN-1] | 70.73% | 0.88 |  |  |  |  |
|  | Cc1cn(-c2cc(NC(=O)c3ccc(C)c(Nc4nccc(-c5cccnc5)n4)c3)cc(C(F)(F)F)c2)cn1 [Nilotinib] | 76.71% | 5 |  |  |  |  |
| 153 nM and 287 nM | CC(C)(C)n1nc(-c2ccc(Cl)cc2)c2c(N)ncnc21 [PP2] | 41.77% and 66.61% |  |  |  |  |  |
